PubChem BioAssay (NCI)
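Briefly, cells in 96-well plates were exposed to five compound concentrations for 48 h, and endpoints were estimated by linear interpolation. GI50 = concentration required for 50% inhibition of growth. TGI: concentration producing complete growth inhibition.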

Assays:
Experiment in all cases: DTP human tumour cell line panel, 48 h
A498 renal = system: A498 renal
SN12C renal = system: SN12C renal
HOP-92 NSCLC = system: HOP-92 NSCLC
UO-31 renal = system: UO-31 renal
SF-295 CNS = system: SF-295 CNS
SK-MEL-28 melanoma = system: SK-MEL-28 melanoma
HCT-116 colon = system: HCT-116 colon
SNB-19 CNS = system: SNB-19 CNS
SK-MEL-5 melanoma = system: SK-MEL-5 melanoma
MDA-MB-231 breast = system: MDA-MB-231 breast
SF-539 CNS = system: SF-539 CNS
PC-3 prostate = system: PC-3 prostate
SK-MEL-2 melanoma = system: SK-MEL-2 melanoma
IGROV1 ovarian = system: IGROV1 ovarian
NCI-H23 lung = system: NCI-H23 lung
OVCAR-8 ovarian = system: OVCAR-8 ovarian
SR leukemia = system: SR leukemia
DU-145 prostate = system: DU-145 prostate
NCI-H226 lung = system: NCI-H226 lung
BT-549 breast = system: BT-549 breast
HCT-15 colon = system: HCT-15 colon
OVCAR-3 ovarian = system: OVCAR-3 ovarian
COLO 205 colon = system: COLO 205 colon
KM12 colon = system: KM12 colon
SK-OV-3 ovarian = system: SK-OV-3 ovarian
CAKI-1 renal = system: CAKI-1 renal
RPMI-8226 leukemia = system: RPMI-8226 leukemia
NCI/ADR-RES ovarian = system: NCI/ADR-RES ovarian
ACHN renal = system: ACHN renal
MOLT-4 leukemia = system: MOLT-4 leukemia
K-562 leukemia = system: K-562 leukemia
HT29 colon = system: HT29 colon
MDA-MB-435 = system: MDA-MB-435
HL-60(TB) leukemia = system: HL-60(TB) leukemia
NCI-H522 lung = system: NCI-H522 lung
SNB-75 CNS = system: SNB-75 CNS
MCF7 breast = system: MCF7 breast
SF-268 CNS = system: SF-268 CNS
786-0 renal = system: 786-0 renal
M14 melanoma = system: M14 melanoma
T-47D breast = system: T-47D breast
OVCAR-4 ovarian = system: OVCAR-4 ovarian
HOP-62 NSCLC = system: HOP-62 NSCLC
CCRF-CEM leukemia = system: CCRF-CEM leukemia
LOX IMVI melanoma = system: LOX IMVI melanoma
HS 578T breast = system: HS 578T breast
RXF 393 renal = system: RXF 393 renal
NCI-H460 lung = system: NCI-H460 lung
TK-10 renal = system: TK-10 renal
UACC-62 melanoma = system: UACC-62 melanoma
MALME-3M melanoma = system: MALME-3M melanoma
HCC-2998 colon = system: HCC-2998 colon
OVCAR-5 ovarian = system: OVCAR-5 ovarian
U251 CNS = system: U251 CNS
SW-620 colon = system: SW-620 colon

Cc1oc2c(c1C(=O)N1CC[C@@H](N)C1)C(=O)c1c(c(O)c3ccccc3c1O)C2=O
GI50 (A498 renal): 3.38 µM | TGI (A498 renal): 18.9 µM | GI50 (SN12C renal): 1.3 µM | TGI (SN12C renal): 11 µM | GI50 (HOP-92 NSCLC): 4.64 µM | TGI (HOP-92 NSCLC): 17.4 µM | GI50 (UO-31 renal): 0.421 µM | TGI (UO-31 renal): 2.44 µM | GI50 (SF-295 CNS): 0.272 µM | TGI (SF-295 CNS): 1.79 µM | GI50 (SK-MEL-28 melanoma): 7.47 µM | TGI (SK-MEL-28 melanoma): 20.9 µM | GI50 (HCT-116 colon): 1.28 µM | TGI (HCT-116 colon): 4.59 µM | GI50 (SNB-19 CNS): 2.45 µM | TGI (SNB-19 CNS): 15.7 µM | GI50 (SK-MEL-5 melanoma): 3.97 µM | TGI (SK-MEL-5 melanoma): 16.5 µM | GI50 (MDA-MB-231 breast): 2.26 µM | TGI (MDA-MB-231 breast): 9.06 µM | GI50 (SF-539 CNS): 2.55 µM | TGI (SF-539 CNS): 11.7 µM | GI50 (PC-3 prostate): 1.98 µM | TGI (PC-3 prostate): 10.9 µM | GI50 (SK-MEL-2 melanoma): 11 µM | TGI (SK-MEL-2 melanoma): 23.9 µM | GI50 (IGROV1 ovarian): 1.27 µM | TGI (IGROV1 ovarian): 3.94 µM | GI50 (NCI-H23 lung): 2.61 µM | TGI (NCI-H23 lung): 12.2 µM | GI50 (OVCAR-8 ovarian): 1.25 µM | TGI (OVCAR-8 ovarian): 4.65 µM | GI50 (SR leukemia): 0.224 µM | TGI (SR leukemia): 3.48 µM | GI50 (DU-145 prostate): 1.06 µM | TGI (DU-145 prostate): 15.5 µM | GI50 (NCI-H226 lung): 1.52 µM | TGI (NCI-H226 lung): 22.6 µM | GI50 (BT-549 breast): 8.83 µM | TGI (BT-549 breast): 22.5 µM | GI50 (HCT-15 colon): 1.49 µM | TGI (HCT-15 colon): 11.9 µM | GI50 (OVCAR-3 ovarian): 2.68 µM | TGI (OVCAR-3 ovarian): 9.5 µM | GI50 (COLO 205 colon): 0.643 µM | TGI (COLO 205 colon): 1.97 µM | GI50 (KM12 colon): 2.98 µM | TGI (KM12 colon): 14.4 µM | GI50 (SK-OV-3 ovarian): 1.1 µM | TGI (SK-OV-3 ovarian): 7.86 µM | GI50 (CAKI-1 renal): 0.611 µM | TGI (CAKI-1 renal): 11.4 µM | GI50 (RPMI-8226 leukemia): 2.51 µM | TGI (RPMI-8226 leukemia): 12.6 µM | GI50 (NCI/ADR-RES ovarian): 2.39 µM | TGI (NCI/ADR-RES ovarian): 8.56 µM | GI50 (ACHN renal): 0.629 µM | TGI (ACHN renal): 11.1 µM | GI50 (MOLT-4 leukemia): 0.304 µM | TGI (MOLT-4 leukemia): 1.96 µM | GI50 (K-562 leukemia): 1.86 µM | TGI (K-562 leukemia): 9 µM | GI50 (HT29 colon): 1.68 µM | TGI (HT29 colon): 6.66 µM | GI50 (MDA-MB-435): 2.58 µM | TGI (MDA-MB-435): 10.1 µM | GI50 (HL-60(TB) leukemia): 1.17 µM | TGI (HL-60(TB) leukemia): 4.31 µM | GI50 (NCI-H522 lung): 1.39 µM | TGI (NCI-H522 lung): 4.77 µM | GI50 (SNB-75 CNS): 2.11 µM | TGI (SNB-75 CNS): 15.4 µM | GI50 (MCF7 breast): 1.01 µM | TGI (MCF7 breast): 4.9 µM | GI50 (SF-268 CNS): 1.83 µM | TGI (SF-268 CNS): 10.6 µM | GI50 (786-0 renal): 3.93 µM | TGI (786-0 renal): 17.3 µM | GI50 (M14 melanoma): 1.41 µM | TGI (M14 melanoma): 2.96 µM | GI50 (T-47D breast): 0.863 µM | TGI (T-47D breast): 7.86 µM | GI50 (OVCAR-4 ovarian): 2.92 µM | TGI (OVCAR-4 ovarian): 11.8 µM | GI50 (HOP-62 NSCLC): 0.51 µM | TGI (HOP-62 NSCLC): 4.11 µM | GI50 (CCRF-CEM leukemia): 1.01 µM | TGI (CCRF-CEM leukemia): 4.33 µM | GI50 (LOX IMVI melanoma): 1.1 µM | TGI (LOX IMVI melanoma): 3.96 µM | GI50 (HS 578T breast): 5.23 µM | TGI (HS 578T breast): 22.6 µM | GI50 (RXF 393 renal): 2.53 µM | TGI (RXF 393 renal): 11.3 µM | GI50 (NCI-H460 lung): 0.308 µM | TGI (NCI-H460 lung): 2.21 µM | GI50 (TK-10 renal): 3.07 µM | TGI (TK-10 renal): 16.3 µM | GI50 (UACC-62 melanoma): 4.46 µM | TGI (UACC-62 melanoma): 19.6 µM | GI50 (MALME-3M melanoma): 1.78 µM | TGI (MALME-3M melanoma): 7.62 µM | GI50 (HCC-2998 colon): 3.11 µM | TGI (HCC-2998 colon): 11.7 µM | GI50 (OVCAR-5 ovarian): 5.2 µM | TGI (OVCAR-5 ovarian): 18.9 µM | GI50 (U251 CNS): 1.27 µM | TGI (U251 CNS): 9.27 µM | GI50 (SW-620 colon): 1.08 µM | TGI (SW-620 colon): 7.28 µM
